Results published in PMC9320028, “A Series of New Pyrrole Alkaloids with ALR2 Inhibitory Activities from the Sponge Stylissa massa” (Marine Drugs, 2022).
Values joined by “and” are separate entries in the source; they are usually repeats but may differ in a detail not shown here. Identical values can stand only once.

Tests used:
[1] = target: T1, ALR2 (AKR1B1, aldose reductase) (Homo sapiens, UniProt P15121); assay: ALR2 enzyme assay (in vitro); format: biochemical; details: for inhibition at 20 µM: read-out: ALR2 inhibition rate
T1 construct: The plasmid (pET28b, Novagen) containing the open reading frame of the human ALR2 gene; hexa-histidine (cleaved yes); made in house; host or cells: E. coli BL21 gold (DE3)
Procedure: (§1) For the AKR1B1 enzyme assay and SPR measurements, the protein was expressed and purified using the protocol related to the one reported previously. The plasmid (pET28b, Novagen) containing the open reading frame of the human ALR2 gene was kindly provided by Atagenix, Wuhan, Hubei, China. The E. coli strain BL21 gold (DE3) (Novagen) was used to express the hexa-histidine tagged protein after induction with IPTG (Roth) for 16 h at 293 K. The pellet from a 4 L culture was resuspended in a buffer containing 20 mM Tris and 500 mM NaCl (pH 8.0) before being sonicated and centrifuged. A HiTrap chelating HP column (GE Healthcare) was loaded with the supernatant. After a short washing step with a low imidazole concentration, the fusion protein was eluted by applying a gradient of imidazole. The buffer was exchanged with 20mM Tris-HCl, 10 mM NaCl, 1mM EDTA, and the tag cleaved by thrombin (yuanyeBio-Technology Co. Ltd. Shanghai, China). A Hiprep DEAE FastFlow 16/10 column (GE Healthcare) was loaded with the remaining solution. A NaCl gradient was used to elute the ALR2 from the column.
In the first step of the polyol pathway, glucose reduction is accompanied by the conversation of NADPH to NADP, where only NADPH has an obvious spectral absorption around 340 nm and NADP has none. Thus, the decrease in OD340nm can represent the consumption of NADPH. Therefore, we detect the change of OD340nm before and after reaction to screen the effective ARIs or evaluate the AR activity; assays with epalrestat were used as positive controls. Briefly, the incubation system contains 10 µL ALR2 enzyme (20 µg/mL), 80 µL DL-glyceraldehyde (0.16 mmol/L) as the substrate, 1.0 mmol/L NADPH·4Na as a coenzyme, and 0.1 mol/L PBS (pH = 6.2). […] Then, the absorbance was measured using FlexStation 3 Reader (Molecular Devices, San Francisco, CA, USA) at 340 nm. The absorbance of wells treated with PBS and NADPH was considered as 100% (OD1) and the absorbance of wells treated with PBS and DL-glyceraldehyde was considered as 0% (OD2); the inhibitory rate was calculated by the formula ODcompounds − OD2/OD1 − OD2. […]

[2] = target: T2, ALR2 (Homo sapiens, UniProt P15121); assay: Surface plasmon resonance (SPR) binding assay, Biacore T200; details: ALR2 immobilized on CM5 chip, PBS-P+ buffer, room temperature; read-out: KD value (binding between ALR2 and compound, SPR)
T2 construct: The plasmid (pET28b, Novagen) containing the open reading frame of the human ALR2 gene; hexa-histidine (cleaved yes); made in house; host or cells: E. coli BL21 gold (DE3)
Procedure: as §1
SPR binding analysis methodology can be used to study molecular interactions. Herein, SPR was applied to measure the interactions between compounds 13/14 and ALR2. Initially, ALR2 was prepared in 10 mM sodium acetate (pH 5.0) and then immobilized covalently by an amine-coupling reaction on a CM5 sensor chip. […]

Row | inhibition at 20 µM [1] [%] | Kd [2] | IC50 ([1]; recombinant ALR2, DL-glyceraldehyde substrate, NADPH, PBS pH 6.2, 10 min at 25 °C, OD340nm, read-out: IC50 of ALR2 inhibitory activity) [µM] | Structure (SMILES)
1 | > 50 | 12.5 µM |  | NC1=NC(=O)/C(=C2\CCNC(=O)c3[nH]ccc32)N1 [Compound 13]
2 | > 50 | 6.9 µM and 6.89 µM | 13.1 | NC1=NC(=O)/C(=C2/CCNC(=O)c3[nH]ccc32)N1 [Compound 14]
